{"source": "patent US20250186321A1", "about": "“FORMULATION USING AMINO ACID AND CARBOXYLIC ACID, ORGANIC SALT, AND COMPOSITION COMPRISING SAME AND USE THEREOF” (MIYOSHI OIL & FAT CO., LTD., priority 2021, published 2025)", "data": [{"test": "Appearance of formulation (state at 25° C.)", "assay_type": "physicochemical", "conditions": "25° C.; components (A) and (B) at the compounding molar ratio shown", "method": "Formulations 1 to 427 shown in Tables 1A to 1D were prepared by the above-described method using the components (A) and (B) at the compounding molar ratios shown in the tables, and their states at 25° C. were observed.", "values": [{"smiles": "NCCCC(=O)O.O=C1O[C@H]([C@H](O)CO)C(O)=C1O", "note": "[Formulation 186]", "state at 25° C.": "Solid"}, {"smiles": "CC(C)[C@H](N)C(=O)O.O=CO", "note": "[Formulation 187]", "state at 25° C.": "Solid"}, {"smiles": "CC(=O)O.CC(C)[C@H](N)C(=O)O", "note": "[Formulation 188]", "state at 25° C.": "Solid"}, {"smiles": "CC(C)[C@H](N)C(=O)O.CCC(=O)O", "note": "[Formulation 189]", "state at 25° C.": "Solid"}, {"smiles": "CC(C)[C@H](N)C(=O)O.CCCCCC(=O)O", "note": "[Formulation 190]", "state at 25° C.": "Solid"}, {"smiles": "CC(C)[C@H](N)C(=O)O.CCCC(=O)O", "note": "[Formulation 191]", "state at 25° C.": "Solid"}, {"smiles": "CC(C)[C@H](N)C(=O)O.O=C(O)[C@H](O)[C@@H](O)[C@H](O)[C@H](O)CO", "note": "[Formulation 192]", "state at 25° C.": "Solid"}, {"smiles": "CC(C)[C@H](N)C(=O)O.CC(O)C(=O)O", "note": "[Formulation 193]", "state at 25° C.": "Solid"}, {"smiles": "CC(C)[C@H](N)C(=O)O.O=C(O)CCCCC(=O)O", "note": "[Formulation 194]", "state at 25° C.": "Solid"}, {"smiles": "CC(C)[C@H](N)C(=O)O.O=C(O)CCC(=O)O", "note": "[Formulation 195]", "state at 25° C.": "Solid"}, {"smiles": "CC(C)[C@H](N)C(=O)O.N[C@@H](CCC(=O)O)C(=O)O", "note": "[Formulation 196]", "state at 25° C.": "Solid"}, {"smiles": "CC(C)[C@H](N)C(=O)O.O=C(O)/C=C/C(=O)O", "note": "[Formulation 197]", "state at 25° C.": "Solid"}, {"smiles": "CC(C)[C@H](N)C(=O)O.O=C(O)C[C@H](O)C(=O)O", "note": "[Formulation 198]", "state at 25° C.": "Solid"}, {"smiles": "CC(C)[C@H](N)C(=O)O.O=C(O)CC(O)(CC(=O)O)C(=O)O", "note": "[Formulation 199]", "state at 25° C.": "Solid"}, {"smiles": "CC(C)[C@H](N)C(=O)O.O=C(O)C(O)C(O)C(=O)O", "note": "(centres unmarked) [Formulation 200]", "state at 25° C.": "Solid"}, {"smiles": "CC(C)[C@H](N)C(=O)O.O=C(O)c1ccccc1", "note": "[Formulation 201]", "state at 25° C.": "Solid"}, {"smiles": "CC(C)[C@H](N)C(=O)O.O=C1O[C@H]([C@@H](O)CO)C(O)=C1O", "note": "[Formulation 202]", "state at 25° C.": "Solid"}, {"smiles": "CC(C)[C@H](N)C(=O)O.O=C1O[C@H]([C@H](O)CO)C(O)=C1O", "note": "[Formulation 203]", "state at 25° C.": "Solid"}, {"smiles": "CC(C)C[C@H](N)C(=O)O.O=CO", "note": "[Formulation 204]", "state at 25° C.": "Solid"}, {"smiles": "CC(=O)O.CC(C)C[C@H](N)C(=O)O", "note": "[Formulation 205]", "state at 25° C.": "Solid"}, {"smiles": "CC(C)C[C@H](N)C(=O)O.CCC(=O)O", "note": "[Formulation 206]", "state at 25° C.": "Solid"}, {"smiles": "CC(C)C[C@H](N)C(=O)O.CCCCCC(=O)O", "note": "[Formulation 207]", "state at 25° C.": "Solid"}, {"smiles": "CC(C)C[C@H](N)C(=O)O.CCCC(=O)O", "note": "[Formulation 208]", "state at 25° C.": "Solid"}, {"smiles": "CC(C)C[C@H](N)C(=O)O.O=C(O)[C@H](O)[C@@H](O)[C@H](O)[C@H](O)CO", "note": "[Formulation 209]", "state at 25° C.": "Solid"}, {"smiles": "CC(C)C[C@H](N)C(=O)O.CC(O)C(=O)O", "note": "[Formulation 210]", "state at 25° C.": "Solid"}, {"smiles": "CC(C)C[C@H](N)C(=O)O.O=C(O)CCCCC(=O)O", "note": "[Formulation 211]", "state at 25° C.": "Solid"}, {"smiles": "CC(C)C[C@H](N)C(=O)O.O=C(O)CCC(=O)O", "note": "[Formulation 212]", "state at 25° C.": "Solid"}, {"smiles": "CC(C)C[C@H](N)C(=O)O.N[C@@H](CCC(=O)O)C(=O)O", "note": "[Formulation 213]", "state at 25° C.": "Solid"}, {"smiles": "CC(C)C[C@H](N)C(=O)O.O=C(O)/C=C/C(=O)O", "note": "[Formulation 214]", "state at 25° C.": "Solid"}, {"smiles": "CC(C)C[C@H](N)C(=O)O.O=C(O)C[C@H](O)C(=O)O", "note": "[Formulation 215]", "state at 25° C.": "Solid"}, {"smiles": "CC(C)C[C@H](N)C(=O)O.O=C(O)CC(O)(CC(=O)O)C(=O)O", "note": "[Formulation 216]", "state at 25° C.": "Solid"}, {"smiles": "CC(C)C[C@H](N)C(=O)O.O=C(O)C(O)C(O)C(=O)O", "note": "(centres unmarked) [Formulation 217]", "state at 25° C.": "Solid"}, {"smiles": "CC(C)C[C@H](N)C(=O)O.O=C(O)c1ccccc1", "note": "[Formulation 218]", "state at 25° C.": "Solid"}, {"smiles": "CC(C)C[C@H](N)C(=O)O.O=C1O[C@H]([C@@H](O)CO)C(O)=C1O", "note": "[Formulation 219]", "state at 25° C.": "Solid"}, {"smiles": "CC[C@H](C)[C@H](N)C(=O)O.O=CO", "note": "[Formulation 221]", "state at 25° C.": "Solid"}, {"smiles": "CC(=O)O.CC[C@H](C)[C@H](N)C(=O)O", "note": "[Formulation 222]", "state at 25° C.": "Solid"}, {"smiles": "CCC(=O)O.CC[C@H](C)[C@H](N)C(=O)O", "note": "[Formulation 223]", "state at 25° C.": "Solid"}, {"smiles": "CCCCCC(=O)O.CC[C@H](C)[C@H](N)C(=O)O", "note": "[Formulation 224]", "state at 25° C.": "Solid"}, {"smiles": "CCCC(=O)O.CC[C@H](C)[C@H](N)C(=O)O", "note": "[Formulation 225]", "state at 25° C.": "Solid"}, {"smiles": "CC[C@H](C)[C@H](N)C(=O)O.O=C(O)[C@H](O)[C@@H](O)[C@H](O)[C@H](O)CO", "note": "[Formulation 226]", "state at 25° C.": "Solid"}, {"smiles": "CC(O)C(=O)O.CC[C@H](C)[C@H](N)C(=O)O", "note": "[Formulation 227]", "state at 25° C.": "Solid"}, {"smiles": "CC[C@H](C)[C@H](N)C(=O)O.O=C(O)CCCCC(=O)O", "note": "[Formulation 228]", "state at 25° C.": "Solid"}, {"smiles": "CC[C@H](C)[C@H](N)C(=O)O.O=C(O)CCC(=O)O", "note": "[Formulation 229]", "state at 25° C.": "Solid"}, {"smiles": "CC[C@H](C)[C@H](N)C(=O)O.N[C@@H](CCC(=O)O)C(=O)O", "note": "[Formulation 230]", "state at 25° C.": "Solid"}, {"smiles": "CC[C@H](C)[C@H](N)C(=O)O.O=C(O)/C=C/C(=O)O", "note": "[Formulation 231]", "state at 25° C.": "Solid"}, {"smiles": "CC[C@H](C)[C@H](N)C(=O)O.O=C(O)C[C@H](O)C(=O)O", "note": "[Formulation 232]", "state at 25° C.": "Solid"}, {"smiles": "CC[C@H](C)[C@H](N)C(=O)O.O=C(O)CC(O)(CC(=O)O)C(=O)O", "note": "[Formulation 233]", "state at 25° C.": "Solid"}, {"smiles": "CC[C@H](C)[C@H](N)C(=O)O.O=C(O)C(O)C(O)C(=O)O", "note": "(centres unmarked) [Formulation 234]", "state at 25° C.": "Solid"}, {"smiles": "CC[C@H](C)[C@H](N)C(=O)O.O=C(O)c1ccccc1", "note": "[Formulation 235]", "state at 25° C.": "Solid"}, {"smiles": "CC[C@H](C)[C@H](N)C(=O)O.O=C1O[C@H]([C@@H](O)CO)C(O)=C1O", "note": "[Formulation 236]", "state at 25° C.": "Solid"}, {"smiles": "N[C@@H](CO)C(=O)O.O=CO", "note": "[Formulation 238]", "state at 25° C.": "Solid"}, {"smiles": "CC(=O)O.N[C@@H](CO)C(=O)O", "note": "[Formulation 239]", "state at 25° C.": "Solid"}, {"smiles": "CCC(=O)O.N[C@@H](CO)C(=O)O", "note": "[Formulation 240]", "state at 25° C.": "Solid"}, {"smiles": "CCCCCC(=O)O.N[C@@H](CO)C(=O)O", "note": "[Formulation 241]", "state at 25° C.": "Solid"}, {"smiles": "CCCC(=O)O.N[C@@H](CO)C(=O)O", "note": "[Formulation 242]", "state at 25° C.": "Solid"}, {"smiles": "CC(O)C(=O)O.N[C@@H](CO)C(=O)O", "note": "[Formulation 244]", "state at 25° C.": "Solid"}]}]}
